Source: patent US20210145730A1, “PROCESS FOR PREPARING AN ORAL DISINTEGRATING DOSAGE FORM” (Zeenar Enterprises Pty Ltd, priority 2017, published 2021)
Structures can show the parent of a compound that is named as a salt. Where two headings read alike, the source gives them in different places.

Assays:
[1] = cited from earlier work
[2] = SAXS liquid crystalline phase formation for mixes of GMO and another ingredient immersed in PBS buffer (Example 1); type: physicochemical
Description: The samples were then mixed via a roller mixer at ˜10 RPM at 40° C. for at least 3 days. One week prior to SAXS experiment, 100 mg samples were loaded into a transparent polystyrene 96 well plate (Nunc™) and immersed in 200 μL of PBS buffer (pH 6.8). The samples were stored away from light at ambient temperature, to allow the samples to reach equilibrium. The SAXS/WAXS beamline at Australian Synchrotron, Melbourne, Australia was used to determine the liquid crystalline nanostructure in the samples. A custom-designed plate holder was used to mount the samples plate directly onto the SAXS/WAXS beamline. Scans were automated using a pre-loaded set of position variables based on the well positions within the plate, the exposure time was 5 sec. Data were obtained at ambient temperature (˜22° C.). […] The 2-D diffraction images were recorded on a Pilatus 1M detector and radially integrated using the in-house software “ScatterBrain”.

[3] = WO 2014/179845; cited from earlier work
[4] = system: porcine buccal mucosa; assay: In vitro release through porcine buccal mucosa in Ussing chamber; conditions: up to 4 hours, n=5
[5] = 20% and above w/w ingredient in mix with GMO
[6] = 1% w/w ingredient in mix with GMO
[7] = 5% w/w ingredient in mix with GMO

Compound: CC(C)c1nc(N(C)S(C)(=O)=O)nc(-c2ccc(F)cc2)c1/C=C/[C@@H](O)C[C@@H](O)CC(=O)O [Rosuvastatin, reference compound]
- logP ([1]; at pH 5): 1.80 at pH 5
- logP ([1]; at pH 7): 0.30 at pH 7
- Liquid crystalline phase formed [2, 5]: Lamellar
- Phase structure ([2]; Concentration in GMO 1%): V2(Pn3m)
- Phase structure ([2]; Concentration in GMO 5%): V2(Pn3m)
- Phase structure ([2]; Concentration in GMO 10%): V2(Pn3m)
- Phase structure ([2]; Concentration in GMO 15%): V2(Pn3m) + V2(Im3m)
- Phase structure ([2]; Concentration in GMO 20%): Lα
- Phase structure ([2]; Concentration in GMO 35%): Lα + Lα
- Phase structure ([2]; Concentration in GMO 50%): Lα
- limit of inclusion before GMO is prevented from forming a cubic liquid crystalline structure ([2]; directly mixed with GMO, contact with hydrophilic solvent): 15%
- Liquid crystalline phase formed ([2]; up to 15% w/w ingredient in mix with GMO): Cubic (2 types)

Compound: CNCC(O)c1ccc(O)c(O)c1 (centres unmarked) [Adrenaline]
- logP [1]: −0.5 to −1.2

Compound: O=C(O)c1cccnc1 [Niacin]
- logP [1]: 0.36
- liquid crystalline phase formed by blend with GMO [3]: hexagonal phase

Compound: COc1ccc(O)c(C(C)(C)C)c1 [Butylated hydroxy anisole (BHA), Butylated hydroxy anisole]
- Liquid crystalline phase formed [2, 6]: cubic
- Liquid crystalline phase formed [2, 7]: cubic + hexagonal
- Liquid crystalline phase formed ([2]; 10-20% w/w ingredient in mix with GMO): hexagonal
- Liquid crystalline phase formed ([2]; 30% and above w/w ingredient in mix with GMO): reverse emulsion
- Phase structure ([2]; Concentration in GMO 1%): V2(Pn3m)
- Phase structure ([2]; Concentration in GMO 5%): V2(Pn3m) + H2

Compound: CCOC(=O)CC(O)(CC(=O)OCC)C(=O)OCC [Tri ethyl citrate (TEC), Tri ethyl citrate]
- Liquid crystalline phase formed ([2]; 35% and above w/w ingredient in mix with GMO): reverse emulsion
- Phase structure ([2]; Concentration in GMO 1%): V2(Pn3m) (ie
- Phase structure ([2]; Concentration in GMO 5%): V2(Pn3m)
- Phase structure ([2]; Concentration in GMO 10%): V2(Pn3m)
- Phase structure ([2]; Concentration in GMO 20%): V2(Pn3m)
- Liquid crystalline phase formed ([2]; up to 20% w/w ingredient in mix with GMO): cubic

Compound: CC1CCC(C(C)C)C(O)C1 (centres unmarked) [Menthol]
- Liquid crystalline phase formed [2, 6]: Cubic
- Liquid crystalline phase formed ([2]; 1% w/w ingredient in mix with GMO, listed as menthol): cubic liquid crystalline structure
- Liquid crystalline phase formed [2, 7]: hexagonal liquid crystalline structure
- Liquid crystalline phase formed ([2]; 5-10% w/w ingredient in mix with GMO): Hexagonal
- Liquid crystalline phase formed [2, 5]: Lamellar
- Liquid crystalline phase formed ([2]; 20 to 50% ingredient directly mixed with GMO): reverse lamella crystalline structure
- Phase structure ([2]; Concentration in GMO 1%): V2(Pn3m)

Compound: COc1ccc2c3c1O[C@H]1C(=O)CC[C@@]4(O)[C@@H](C2)N(C)CC[C@]314 [Oxycodone]
- release characteristics (appearance of active ingredient in the receptor chamber over time) [4]: prolonged release profile with release continuing steadily at 4 hours

Compound: O=S(=O)([O-])NC1CCCCC1.[Na+] [Sodium cyclamate]
- Liquid crystalline phase formed ([2]; 20% w/w ingredient in mix with GMO): lamellar
- Liquid crystalline phase formed ([2]; 50% w/w ingredient in mix with GMO): lamellar + crystals
- Phase structure ([2]; Concentration in GMO 1%): V2(Pn3m)
- Phase structure ([2]; Concentration in GMO 5%): V2(Pn3m)
- Phase structure ([2]; Concentration in GMO 10%): V2(Pn3m) + other
- Phase structure ([2]; Concentration in GMO 20%): Lα (lamella)
- Phase structure ([2]; Concentration in GMO 35%): Lα + other
- Phase structure ([2]; Concentration in GMO 50%): Lα + other
- Liquid crystalline phase formed ([2]; up to 10% w/w ingredient in mix with GMO): cubic
